For one experiment, the system named is Caco-2. Put plainly: MTT assay. The class given is cell-based. The settings on record: Homo sapiens; Caco-2, MTT assay, 24 h incubation. The procedure: (§1) The proliferation of colorectal cancer cells (HCT116, HT29 and Caco-2) was assessed using MTT assay as previously reported. Cells were treated with increasing concentrations of 1, 5, 10, 20, 40, 80 or 100 µM of CP hybrids 4a-j, doxorubicin, or DMSO. See Supplementary Appendix A.

Another experiment concerns HCT116. Put plainly: MTT assay. The settings on record: Homo sapiens, HCT-116, 24 h incubation. It counts as cell-based. The procedure:
as §1

Another experiment relates to HT-29. Put plainly: MTT assay. It counts as cell-based. The settings on record: Homo sapiens; HT-29, MTT assay, 24 h incubation. The procedure: as §1
Experiment [1] relates to Human Embryonic Kidney (HEK) 293 cells. Put plainly: Cytotoxicity assay with non-cancerous cells (MTS). It counts as cell-based. The settings on record: Homo sapiens; HEK293, 72 h incubation.
Protocol: To evaluate the selectivity and safety profile of the synthesised CP hybrids, a cytotoxicity experiment of compounds 4a, 4b, 4e, 4i, and 4j was performed using normal Human Embryonic Kidney (HEK) 293 cells.
To evaluate the selectivity and safety profile of the synthesised ciprofloxacin-chalcone hybrids, a cytotoxicity experiment was performed using a non-cancerous cell line. Briefly, Human Embryonic Kidney (HEK) 293 cells (ATCC, Manassas, VA, USA) were cultured in a Dulbecco’s Modified Eagle Medium (DEMEM) supplemented with 1 mM sodium pyruvate, 10 mM HEPES buffer solution, 2 mM GlutaMAX (Gibco, Grand Island, NY, USA), 50 µg/mL gentamycin sulphate (Dubuque, IA, USA), and 10% foetal bovine serum (ThermoFisher Scientific, USA). Cells were seeded in 96-well plates and incubated overnight in a humidified atmosphere with 5% CO2 at 37 °C. After 24 h, cells were treated with different concentrations (0.01–100 µM) of ciprofloxacin-chalcone hybrids. Also, DMSO and doxorubicin were used as negative and positive controls, respectively. After 72 h, old medium containing treatments were removed, and fresh medium and MTS reagents (CellTiter 96® AQueous One Solution Cell Proliferation Assay, Promega, Madison, WI, USA) were added. […] After 2 h, the absorbance was measured at 490 nm using a Spectra Max plus 384 Microplate reader (Molecular Devices, Sunnyvale, CA, USA) [74]. […]
Details of experiment [2]: method as in PMID 33248713, PMID 24090914. The following applies: Figure 1; cited from earlier work.
Another experiment deals with leukemia SR. More on the design: method as in PMID 33248713, PMID 24090914. The following applies: Figure 1; cited from earlier work.
The subject of experiment [3] is non small lung cancer A459. More on the design: method as in PMID 27555286. The settings on record: non small lung cancer A459, printed in Figure 1; cited from earlier work.
Experiment [4] concerns normal lung fibroblast WI-38. Also noted: method as in PMID 27555286. The settings on record: normal lung fibroblast WI-38, printed in Figure 1; cited from earlier work.
In a further experiment the test system is MCF-7 cancer cell lines. More on the design: method as in earlier work. The following applies: cited from earlier work.
A further experiment concerns tubulin polymerisation. Put plainly: Tubulin immunofluorescence microscopy in HCT116 cells. The class given is cell-based, human. The settings on record: HCT116, IC50 of compound, 36 h. The procedure: (§2) The process of tubulin polymerisation in the cells is important for the completion of mitosis and is targeted for cancer treatment. It has been reported that the suppression of tubulin polymerisation will arrest the cells at the G2/M and it eventually leads to cell death. To test the tubulin-disruptive effect of the CP hybrids, HCT116 cells were analysed by immunocytochemistry. HCT116 cells were incubated for 36 h with IC50 of the CP hybrids (4a, 4b, 4e, 4i, and 4j), nocodazole (a well-known tubulin polymerisation inhibitor, as a positive control), DMSO or Paclitaxel (a well-known tubulin polymerisation inducer, as a negative control), and tubulin was visualised by immunofluorescence microscopy. An antibody for α-tubulin was used. […] Moreover, a Western blot was performed to verify the tubulin polymerisation inhibition ability of the synthesised compounds (Figure 8(B)). The level of polymerised tubulin was decreased in HCT116 cells treated with IC50 values of CP hybrids 4a, 4b, 4e, 4i, 4j, or nocodazole.
HCT116 cells were cultured and treated with the IC50 of the potent compounds (4a, 4b, 4e, 4i, and 4j) or DMSO (control), fixed, permeabilized, and they were incubated with either γH2AX or α-tubulin antibody as the reported procedure in the literature. Confocal images were captured using a Confocal Microscope with a 63X objective. All images were processed using ImageJ software. See Supplementary Appendix A.

The next experiment relates to polymerised tubulin. Kind of experiment: Western blot of polymerised tubulin in HCT116 cells. The following applies: HCT116, IC50 values of compounds. The class given is cell-based, human. Here is the method: as §2
Western blotting analysis for HCT116 cells was performed according to the reported procedure in the literature[77–79] to determine the effects of CP hybrids; 4a, 4b, 4e, 4i, and 4j on the expression of polymerised tubulin, γH2AX, p-ATR, p-CHK1, and p-Cdc25C by using the appropriate antibody. See Supplementary Appendix A.

Like-named read-outs stand apart in the source and are kept apart here.

For the molecule `COc1cccc2c1C(=O)c1c(O)c3c(c(O)c1C2=O)C[C@@](O)(C(=O)CO)C[C@@H]3O[C@H]1C[C@H](N)[C@H](O)[C@H](C)O1` [Doxorubicin, reference compound], the IC50 in the experiment with Caco-2 turned out to be 4150 ± 1080 nM; in the experiment with HCT116 it was 1220 ± 270 nM; in the experiment with HT-29, 880 ± 580 nM; in experiment [1], 47.5 nM. Turning to `O=C(CN1CCN(c2cc3c(cc2F)c(=O)c(C(=O)O)cn3C2CC2)CC1)Nc1ccc(C(=O)/C=C/c2ccccc2)cc1` [I], in experiment [2], the 50% growth inhibitory concentration (GI50) is 430 to 39600 nM. On to `CC[C@@]1(O)C(=O)OCc2c1cc1n(c2=O)Cc2cc3ccccc3nc2-1` [Camptothecin], for which the concentration for half-maximal inhibition (IC50) in the experiment on leukemia SR is 3320 nM. Regarding `O=C(CN1CCN(c2cc3c(cc2F)c(=O)c(C(=O)O)cn3C2CC2)CC1)Nc1ccc(Cl)cc1` [III], the IC50 in experiment [3] was 14800 nM; in experiment [4], > 100000 nM. With `CCOc1cc(/C=C/C(=O)c2cccc(O)c2)ccc1OCc1cn(-c2cc(Cl)ccc2O)nn1` [X], the half-inhibitory concentration (IC50) was 1270 nM in the experiment with MCF-7 cancer cell lines (MCF-7, 24 h) and 20 nM in the experiment on MCF-7 cancer cell lines (MCF-7, 48 h).

Consider `COC(=O)Nc1nc2ccc(C(=O)c3cccs3)cc2[nH]1` [nocodazole, reference compound], for which, in the experiment on tubulin polymerisation, the “tubulin polymerisation, morphological changes by immunofluorescence” value is “significant tubulin polymerisation inhibition”. Moreover, in the experiment on polymerised tubulin, the “level of polymerised tubulin, Western blot” value is on record as “decreased”.

For `COc1cc(/C=C/C(=O)c2ccc(NC(=O)N3CCN(c4cc5c(cc4F)c(=O)c(C(=O)O)cn5C4CC4)CC3)cc2)cc(OC)c1OC` [II], in the experiment with leukemia SR, the half-maximal inhibitory concentration (IC50) was 640 nM.
